The text below walks through data of patent US5403862A, “Method for oral decorporation of metals” (priority 1992, dated 1995).

A short description of data set [1]: Effect of 1 week oral feeding of TT-based chelons on total body and liver content of 241Am (Table 1). The data set is classed as in vivo, rats. Details: % Reduction in liver 241Am (Compared with controls): concentration or dose not given beside the values. As to conditions: for % Reduction in liver 241Am (Compared with controls): 1 week oral feeding, determined at necropsy; for % Reduction in total body 241Am (Before vs after chelon feeding): po, 168 h. The protocol: (§1) To test the ability of complexed chelons to move across membrane and cellular barriers, an assay has been developed that measures the intestinal passage of the chelons in closed duodenal segments in situ over a 3 hour period. […] Although there were differences in the rate at which some of these compounds moved through this tissue barrier, all were effective in Am removal in vivo as set forth in the following Table 1.
Effect of 1 week feeding of TT-based chelons on total
body and liver content of ^241 Am. Am was allowed to
incorporate for 1 week prior to oral chelon feeding.
Total body counts were taken before and after chelon feeding.
Liver values were determined at necropsy.

Data set [2] in a line: Distribution of 210Pb between water and chloroform after adding chelator. The data set is classed as physicochemical. Here is the method: In this example the ability of DMS(C8)2, from Example 17, and C12 DMS Et2, from Example 16 to move ^210 Pb between lipid and aqueous phases of chloroform and water mixture was measured. This would be an indicator of the ability of the chelator and the chelate-metal complex to penetrate lipophilic barriers.
^210 Pb was dissolved in water. C12 DMS Et2 and DMS(C8)2 were added and mixed for 10 minutes with chloroform. The solutions were mixed every several hours. The phases separated and the percentage of ^210 Pb found in the chloroform phase as a function of time was determined.

Data set [3] is described as follows: In vitro Pb binding and lipophilic character of C12 DMSA. Format: physicochemical. The source says:
As with the PACA's, the chain length could be changed and other functional groups could be added.

A further data set deals with red cells. Put plainly: Crenation-hemolysis test in fresh canine blood. The data set is classed as cell-based. As to conditions: Ca chelate, 10 and 20 mg, 37° C., 1 hour and 4 hours. The protocol:
Toxicity studies were performed as indicators of early gross toxicity. […] Therefore, the crenation-hemolysis tests were repeated with the highly purified C12 -and C22 -PACAs. Two ml aliquots of fresh canine blood, drawn with a heparinized syringe, were incubated at 37° C. with an equal volume of a 0.1M Tris-buffer containing 10 and 20 mg, respectively, of the Ca chelate of the two compounds whose osmolarity had been adjusted to 270-300 mOsm. After 1 hour and 4 hours of incubation, respectively, blood smears were prepared and examined microscopically and cells were sedimented.

Data set [4] can be described thus: Elimination of intravenously injected 241Am-complexed chelons by whole body counting and excreta. Format: in vivo. As to conditions: intravenous. The protocol: In this example, animals were injected intravenously with ^241 Am-complexed C12 TT or K11 TT (K= terminally carboxylated alkyl series) and the rates of elimination from the body were determined. This was determined by whole body counting and counting of the excreta, both urine and feces. FIG. 2 illustrates the fraction of total body retention of the labeled chelating agents as a function of time after exposure. […] This example illustrates that modified polyaminocarboxylic acids have different organ targeting properties and different excretion pathways.

The test system of data set [5] is intestinal mucosa (duodenum and proximal jejunum). The data set is described as follows: Intestinal tied-loop passage of 241Am complexes in situ. Format: in vivo, rats. The conditions noted are these: 241Am complex, 3 hours. The protocol:
as §1
The ability of Am-citrate and ^241 Am-C12 TT to cross the intestinal mucosa in situ was measured using an intestinal tied-loop technique. Rats were anesthetized and a 18-20 cm segment of the duodenum and proximal jejunum was isolated and rinsed with cold saline. The most proximal portion of this segment was 1 cm distal to the pyloric junction. With the stability of the ^241 Am-complex established, known quantities of the corresponding complexes were introduced in vivo directly into the isolated and ligated segment. The animals remained anesthetized to allow for passage of the lipophilic compounds through the intestinal barrier into the body. After 3 hours, the rats were euthanized, the ligated section of the gut was excised and its lumen flushed with saline. Lumen wash, cleaned gut section, combined viscera, liver and the remaining carcass were counted separately. The 241Am found in the various parts was considered as representative of the distribution of the chelon.

The nature of data set [6]: Reduction of 241Am whole body and organ burden by oral chelon administration (Table 2, Example 12). The data set is classed as in vivo, Sprague-Dawley rats. The conditions noted are these: 10 days oral treatment, 50 micro-mole/rat/day, vs controls; for % Reduction of 241Am, both femora / % Reduction of 241Am, carcass / % Reduction of 241Am, liver / % Reduction of 241Am, whole body: p <0.001 (C12TT, C22TT); for % Reduction of 241Am, one kidney: p >0.1 (C12TT, C22TT). The protocol: ^a) Reduction = 100 - (% of initial activity in treated rats at
death/% of initial activity in controls at death); 9 Rats/Group; 10 Days
(§2) In vivo studies of the compounds of the present invention were performed. The effect of oral treatment on rats given an injection of 241Am was studied by a) comparing the reduction of an internal burden of 241Am from rats fed C12 TT or C22 TT with the natural biological retention of ^241 Am under condition of no chelation treatment; b) examination of histologic sections of tissues obtained from treated rats and c) by comparing the relative weight gain of treated rats and controls during the chelon feeding period. The effect of feeding C12 TT or C22 TT on the retention of ^241 Am was tested in 3 groups of 9 rats each. Sprague-Dawley rats (Simonson Labs., Gilroy, Cailf.), aged 60 days, were used in these studies. The animals were housed in groups of 3 or 4 until treatment was initiated. ^241 Am was given via the jugular vein as a single injection in citrate buffer of pH 3.5. One week later, rats were transferred to individual cages and feeding of the chelator was initiated. This delay allowed the nuclide to be incorporated firmly in the target organs, mostly liver and bone.
(§3) The first group served as untreated controls, the second and third groups received 50 micro-mole of C12 TT or C22 TT/rat or about 200 micro-mole/kg of body weight, respectively, in their daily ration of 25 g of rodent chow. On days 1 and 7 after injection and on days 3, 6 and 10 of chelation treatment, the total body retention of ^241 Am was measured using a whole body counter. The animals were necropsied after 10 days of oral chelation therapy and the femora, liver, 1 kidney, viscera and carcass with integument were counted for ^241 Am content. The other kidney and a sample of the small and large intestine were prepared for histological evaluation. Whole body retentions as a function of time were evaluated. Terminal organ retentions were measured after necropsy only. The reduction in whole body or organ retention due to oral chelation treatment was expressed as: [formula] both taken at the same time after treatment initiation. Results are shown in Table 2 above, which is incorporated into this Example by reference.

Data set [7] is described as follows: Weight gain and histology of rats during oral chelon feeding. As to conditions: 10 days oral feeding; controls 61.1+8.8 g. Format: in vivo, Sprague-Dawley rats. The protocol:
as §2, with “The animals were housed in groups of 3 or 4 until treatment was initiated. ^241 Am was given via the jugular vein as a single injection in citrate buffer of pH 3.5. One week later, rats were transferred to individual cages and feeding of the chelator was initiated. This delay allowed the nuclide to be incorporated firmly in the target organs, mostly liver and bone.” left out
as §3, with “The other kidney and a sample of the small and large intestine were prepared for histological evaluation.” left out, “The reduction in whole body or organ retention due to oral chelation treatment was expressed as: [formula] both taken at the same time after treatment initiation. Results are shown in Table 2 above, which is incorporated into this Example by reference.” left out

Data set [8] in a line: Solution behaviour / micelle formation of C22 TT. Format: physicochemical.
Data set [9] can be described thus: Reduction of 239Pu organ burden by oral administration of C22 TT (Table 5, Example 14). The data set is classed as in vivo, Sprague-Dawley rats. The conditions noted are these: 10 days in diet, starting 14 days after Pu, vs untreated. Here is the method:
Twelve young adult male rats (Sprague-Dawley rats from Simonsen Labs, Gilroy, Calif.) were given ^239 Pu by intravenous injection. Fourteen days later 6 of the animals were fed C22 TT in the diet while the other 6 animals were not fed the compound and served as controls. The delay in beginning the chelation treatment allowed the nuclide to be incorporated firmly in the target organs. After 10 days of feeding, the animals were sacrificed and the Pu content in 'select tissues was determined by liquid scintillation counting.
*100 × (1Pu in treated animals/Pu in untreated, control animals)

Another data set has as its system intestinal tract. The conditions noted are these: dogs; cited from earlier work.
The conditions of data set [10]: known chelators; cited from earlier work.
Data set [11] can be described thus: pH-titration at constant ionic strength. The conditions noted are these: pH-titration in both directions. Format: physicochemical. Here is the method:
For each compound, pH-titrations in both directions were carried out at constant ionic strength. All compounds were completely […] between pH 7.2 and 7.8 for the DT-series and 7.7 and 8.0 for the TT-series, pointing to the availability of all potential donor electrons derived from carboxyl oxygens--for complex or chelate formation similar to EDTA (pH 8.8) and DTPA (pH 6.7), the two model compounds known for their ability to chelate actinides and some other metals.

`CCCCCCCCN(CCN(CCN(CCN(CC(=O)O)CC(=O)O)CC(=O)O)CC(=O)O)CC(=O)O` [C8 TT]: in data set [1], the “% Reduction in liver 241Am (Compared with controls)” value (“% Reduction in liver 241Am” below) was -30.1 ± 10.0% and the “% Reduction in total body 241Am (Before vs after chelon feeding)” value (“% Reduction in total body 241Am” below) is given as -39.0 ± 6.3%.

On to `CCCCCCCCCCCCSC(C(=O)OCC)C(S)C(=O)OCC` (centres unmarked) [C12 DMS Et2, S-Dodecyl dimercaptosuccinic acid diethyl ester], for which, in data set [2], the “Percentage of aqueous 210Pb found in chloroform phase, 15 min” value was 36.5% and the “Percentage of aqueous 210Pb found in chloroform phase, 16 h” value was 62.2%.

In the case of `CCCCCCCCCCCCSC(C(=O)O)C(S)C(=O)O` (centres unmarked) [C12 DMSA, S-Dodecyl dimercaptosuccinic acid], in data set [3], the “ability to bind Pb in vitro” value is reported as “ability of this molecule to bind Pb is demonstrated in vitro” and the “partial lipophilic character” value is “partial lipophilic character of this molecule has been established in vitro”.

Take `CCCCCCCCCCCCN(CCN(CCN(CCN(CC(=O)O)CC(=O)O)CC(=O)O)CC(=O)O)CC(=O)O` [C12 TT, 1-N-Dodecyl-triethylenetetramine pentaacetic acid]: in the data set with red cells, the “appearance of sera / hemolysis” value is listed as “All sera were slightly pink in appearance” and the “red cell crenation” value is listed as “No red cell crenation was observed”. In data set [4], the “excretion pathway” value is reported as “via the liver, through the bile into the feces” and the “rate of elimination from the body” value is recorded as “less rapidly excreted”. Moreover, in [5], the “fraction found in carcass” value is 20%; the “fraction found in liver” value amounted to 3%; the “fraction found in lumen and gut section” value stood at 73%; the “fraction found in viscera” value is 4%. In addition, in [6], the “% Reduction of 241Am, both femora” value is listed as 17%; the “% Reduction of 241Am, carcass” value was found to be 20%; the “% Reduction of 241Am, liver” value stood at 71%; the “% Reduction of 241Am, whole body” value came out at 29%. Moreover, the “% Reduction of 241Am, one kidney” value in data set [6] is listed as 24%. Also, the weight gain in data set [7] is given as 55.7+11.1 g. In data set [1], the “% Reduction in liver 241Am” value is -57.1 ± 0.1% and the “% Reduction in total body 241Am” value is -46.5 ± 4.0%.

With `CCCCCCCCCCCCCCCCCCCCCCN(CCN(CCN(CCN(CC(=O)O)CC(=O)O)CC(=O)O)CC(=O)O)CC(=O)O` [C22 TT, 1-N-Docosyl-triethylenetetramine pentaacetic acid], in the data set on red cells, the “appearance of sera / hemolysis” value is “All sera were slightly pink in appearance” and the “red cell crenation” value is listed as “No red cell crenation was observed”. Moreover, in data set [8], the “solution clarity / micelle formation” value is recorded as “micelle formation”. Also, in data set [6], the “% Reduction of 241Am, both femora” value was 32%; the “% Reduction of 241Am, carcass” value is 36%; the “% Reduction of 241Am, liver” value is on record as 89%; the “% Reduction of 241Am, whole body” value came out at 44%. Besides, in data set [6], the “% Reduction of 241Am, one kidney” value is 26%. Further, in data set [7], the weight gain is 70.2+11.6 g. In addition, the “% Reduction of 239Pu, liver” value in data set [9] (p <0.005) was determined as 71.1%. In data set [9] (p <0.01), the “% Reduction of 239Pu, spleen” value is listed as 16.9%. In addition, in [9] (p <0.375), the “% Reduction of 239Pu, femora” value amounted to 3.5% and the “% Reduction of 239Pu, lumbar vertebral bodies” value was determined as 8.4%. In [1], the “% Reduction in liver 241Am” value is listed as -47.9 ± 9.1% and the “% Reduction in total body 241Am” value is given as -45.7 ± 6.1%.

On to `O=C([O-])CN(CCN(CC(=O)[O-])CC(=O)[O-])CCN(CC(=O)[O-])CC(=O)[O-].[Ca+2].[Na+].[Na+].[Na+]` [Ca DTPA], for which, in the data set on intestinal tract, the “toxicity after frequent administration” value was “destruction of the epithelial lining and related structures of the intestinal tract followed by death”.

With `CCCCCCCCOC(=O)C(S)C(S)C(=O)OCCCCCCCC` (centres unmarked) [DMS(C8)2, dimercaptosuccinic acid dioctyl ester], in data set [2], the “Percentage of aqueous 210Pb found in chloroform phase, 15 min” value is listed as 32.2% and the “Percentage of aqueous 210Pb found in chloroform phase, 16 h” value stood at 41.9%.

As for `O=C(O)C(S)C(S)C(=O)O` (centres unmarked) [DMSA, 2,3dimercaptosuccinic acid], the “effectiveness in removing lead” value in data set [10] is “effective for reducing blood levels of Pb, but has limited effectiveness in removing lead burdens from other organs, such as liver, brain and bone”.

On to `O=C(O)CN(CCN(CC(=O)O)CC(=O)O)CCN(CC(=O)O)CC(=O)O` [DTPA, diethylenetriamine pentaacetic acid], for which the “pH of complete protonation” value in [11] is recorded as 6.7.

In the case of `O=C(O)CN(CCN(CC(=O)O)CC(=O)O)CC(=O)O` [EDTA, ethylenediaminetetraacetic acid], in data set [10], the “effectiveness in removing lead” value is recorded as “effective in removing lead in the blood, but is not effective in removing lead which has penetrated the cells”. Also, the “pH of complete protonation” value in [11] is 8.8.
